According to patent US6858633B1, “Substituted 2-arylbenzazole compounds and their use as antitumour agents” (Cancer Research Technology Limited, priority 1999, dated 2005):

Key:
[1] = system: certain human breast cancer cell lines; details: WO 95/06469; cited from earlier work
MCF-7 = test: In vitro cytotoxicity, 3-day MTT assay, MCF-7; type: cell-based, human; details: 3-day MTT assay, n=8
Method: (§1) In carrying out the following cytoloxicity assays, the method used corresponds substantially to the following example: • Cells were maintained in a continuous logarithmic culture in RMPI 1640 with L-glutamine medium, supplemented with 10% fetal calf serum, penicillin (100 IU/ml) and streptomycin (100 μg/ml). The cells were mildly trypsinized for passage and for use in assays. • On day one, 180 μl of trypsinized tumour cells (5×10^3 ml^−1) were placed in the wells of 96-well, flat-bottom microtiter plates. Columns 1 and 12 were filled with 300 μl medium to protect from evaporation. The plates were incubated for 24 hours at 37° C. and 5% CO2 in air to allow the cells to adhere and resume exponential growth prior to the addition of drugs. The compounds being tested were dissolved in DMSO and stored as 10 mM stock solutions at 4° C., protected from light. […] 20 μl of drug dilution was added to the other wells with the lowest concentration in column 3 and the highest concentration in column 11. The plates were incubated for 72 hours at 37° C. and 5% CO2 in air. Each compound was tested in triplicate. At the time of drug addition, a plate of untreated cells was read to provide an initial optical density value for use in the calculation of the IC50. • On day five the plates were read. 50 μl MTT (1 mg/ml^−1) was added per well and the plates incubated for a further 4 hours. The MTT is metaboliscd to form a blue formazan product. The MTT solution was aspirattd and 125 μl DMSO:glycine buffer (4:1) was added. The plates were placed on a plate shaker until the fornazan crystals had dissolved and absorbance was ready at 550 nm on a plate reader. • For each compound tested, a dose response curve was obtained and the IC50 statue (drug concentration at 50% inhibition of cell growth) was calculated.
(§2) (n=8) for a range of compounds in relation to MCF-7 and MDA 468 cell lines.

MDA468 = test: In vitro cytotoxicity, 3-day MTT assay, MDA468; type: cell-based; details: n=8
Method: as §1, §2

[2] = rat, in vivo, iv, 25 mg/kg
[3] = Stability in plasma in vitro; type: in vitro ADME, rat; details: rat, plasma
MCF-7 cells = test: Conversion of prodrug to parent in culture of MCF-7 cells; type: cell-based
[4] = Plasma concentrations after administration to mice; type: in vivo; details: mouse, 70 μmol/kg, read-out: Geometric Mean Plasma Concentration
[5] = Blood parameters and liver transaminases in xenograft studies; parameters: species or system nude mice; details: mouse, in vivo
sensitive cell lines = test: Biphasic dose-response relationship (second growth phase) in sensitive cell lines; type: cell-based
From the text: One feature of the prior art compounds is that they show a biphasic dose-response relationship specifically in sensitive cell lines: cell kill occurs at low nanomolar concentrations of the compounds, followed by a potentially undesirable proliferative response at low micromolar concentrations (termed the “second growth phase”).

[6] = system: ER positive MCF-7 human breast tumor xenografts
[7] = system: ER negative MT-1 human breast tumor xenografts
COLO205 xenografts = test: In vivo COLO205 xenograft study (FIG. 2)
[8] = system: cell lines that relate to a range of various mammalian cancers other than human breast cancer; details: WO 96/26932; cited from earlier work

For Nc1ccc(-c2nc3ccccc3s2)cc1 [CJM 126, 2-(4′-aminophenyl)benzothiazole], the “specific inhibitory activity in human breast cancer cell lines” value [1] is given as “remarkably high specific inhibitory activity”.
For Cc1cc(-c2nc3cc(F)ccc3s2)ccc1NC(=O)C(N)CCCCN.Cl.Cl (centres unmarked) [Compound Iad, 5-Fluoro-2-(4′-amino-3′-methylphenyl)benzothiazole Lysyl Amide Dihydrochloride Salt], the IC50 (MCF-7) was 40 nM, the IC50 (MDA468) was 158 nM and the “removal from plasma and reconversion to parent compound in vivo” value [2] was “readily removed from such plasma and reconverted to their parent compound in vivo”. The “stability in plasma in vitro” value [3] was “stable” and the “concentration of parent compound 5F203 after addition of prodrug to MCF-7 culture” value (MCF-7 cells) was “progressive increase in concentration of the parent compound 5F203”.
With Cc1cc(-c2nc3cc(F)ccc3s2)ccc1N [Compound Ik, 5-Fluoro-2-(4′-amino-3′-methylphenyl)benzothiazole] the IC50 (MCF-7; Homo sapiens, MCF7, 72 h) was under 0.1 nM, the concentration at 3.5 min ([4]; mean sample time 3.5 min) was 1180 nM and the concentration at 6.5 min ([4]; mean sample time 6.5 min) was 1530 nM. It also gave a concentration at 9.5 min ([4]; mean sample time 9.5 min) of 1840 nM, a concentration at 12.5 min ([4]; mean sample time 12.5 min) of 2270 nM and a concentration at 15.5 min ([4]; mean sample time 15.5 min) of 3270 nM. It also gave a concentration at 20.8 min ([4]; mean sample time 20.8 min) of 2680 nM, a concentration at 30.5 min ([4]; mean sample time 30.5 min) of 3770 nM and a concentration at 45.4 min ([4]; mean sample time 45.4 min) of 3410 nM. The concentration at 60.5 min ([4]; mean sample time 60.5 min) was 4110 nM, the concentration at 90.6 min ([4]; mean sample time 90.6 min) was 3520 nM and the concentration at 120.5 min ([4]; mean sample time 120.5 min) was 2630 nM. For the same molecule, the concentration at 240 min ([4]; mean sample time 240.0 min) was 1000 nM, the concentration at 360 min ([4]; mean sample time 360.0 min) was 590 nM and the “blood parameters (white blood cell and platelet counts) and level of liver transaminases” value [5] was “not adversely affected”. The IC50 (MDA468; 72 h) was under 0.1 nM, the “biphasic dose-response (second growth phase)” value (sensitive cell lines) was “the biphasic response is eliminated” and the “toxicity in MCF-7 xenograft study” value ([6]; 12.5 mg/kg, i.p.) was “toxic”. The “tumour growth inhibition, MCF7 xenografts (FIG. 1)” value [6] was “Tumour growth inhibition observed”, the “growth inhibition of MCF-7 xenografts” value ([6]; given i.p.) was “Significant growth inhibition” and the “toxicity in MT-1 xenograft study” value ([7]; 25 mg/kg, parent compounds) was “toxic”. For the same molecule, the “tumor growth inhibition in MT-1 xenografts” value ([7]; dose dependence) was “dose-dependent tumor growth inhibition”, the “weight loss in MT-1 xenograft study” value ([7]; dose dependence) was “weight loss” and the “tumour growth inhibition, COLO205 xenografts (FIG. 2)” value (COLO205 xenografts) was “tumour growth inhibition observed”.
In the case of Cc1cc(-c2nc3ccccc3s2)ccc1N [DF203, 2-(4′-amino-3′-methylphenyl)benzothiazole, reference compound], the “anti-proliferative activity in cell lines of cancers other than human breast cancer” value [8] is listed as “exhibit anti-proliferative activity selectively” and the “tumour growth inhibition, MCF7 xenografts (FIG. 1)” value [6] is listed as “Tumour growth inhibition observed”.
